Consider 15 molecules from paper PMC11089561, “Structural Investigations of Phthalazinone Derivatives as Allosteric Inhibitors of Human DNA Methyltransferase 3A” (ACS Medicinal Chemistry Letters, 2024).

The target of data set [1] is T1, DNMT3A_CD (catalytic domain of DNMT3A) (Homo sapiens, UniProt Q9Y6K1).
T1 construct: The catalytic domain of DNMT3A (residues 634 -912) were used for all experiments; made in house; host or cells: E. coli NiCo21 (DE3) (NEB)
As to the kind of experiment: Kinetics studies: methylation assays with varied SAM or poly dI-dC, fit to inhibition models. It counts as biochemical. The following applies: for α coefficient from mixed-type inhibition model, varied SAM: SAM varied 0.15-10 uM, poly dI-dC 10 uM; for α coefficient from mixed-type inhibition model, varied SAM / α coefficient from mixed-type inhibition model, varied DNA: α < 1 = preference for enzyme-substrate complex; for α coefficient from mixed-type inhibition model, varied DNA: poly dI-dC varied 0.15-10 uM, SAM 10 uM; for Best fit inhibition model: with DNA and SAM varied, R2 comparison and F-test, p-value < 0.0001. The source says:
Using methylation assays with and without inhibitor and varied concentrations of DNA or SAM, we generated nonlinear Michaelis–Menten curves with corresponding double-reciprocal plots (Figure S2) and fit them to classical inhibition models. […] By analyzing double-reciprocal plots, this mechanistic model was confirmed because the changes in y-intercept and slope are inconsistent with competitive and uncompetitive forms of inhibition, respectively. […] Furthermore, the selected analogs also bind more tightly to the enzyme–substrate complex than to the free enzyme with both DNA and SAM (Table S2). This preference could be beneficial since DNMT3A bound to DNA is likely the dominant species in a cellular context. […]
(§1) buffer and eluted with an identical buffer containing a higher imidazole concentration of 500 mM. Eluted protein was desalted with a 5 mL HiTrap Desalting column (Cytiva) and flash frozen in liquid nitrogen for storage at -80 °C. DNMT3A_CD concentration was determined using UV-vis with an extinction coefficient determined by protparam of 38,180 M-1 cm-1 to represent the monomeric state.
(§2) In Vitro Methylation Assays
(§3) Methylation assays were used to determine nanomolar amounts of methylated DNA product. Reactions were carried out in 50 mM K2HPO4/KH2PO4 at pH 7.8, 1 mM EDTA, 1 mM DTT, 0.2 mg/mL BSA, 20 mM NaCl, 150 nM DNMT3A_CD, 10 uM poly dI-dC (Sigma Aldrich), and 10 uM SAM (Sigma Aldrich) unless otherwise stated. The SAM cofactor was diluted with [3H]-SAM from PerkinElmer in 10 mM H2SO4. All inhibitors were dissolved and diluted in DMSO prior to addition to methylation reactions. Reactions with and without […]
All reactions containing inhibitors were preincubated with DNMT3A and inhibitor for 1 hour. Reactions were activated with poly dI-dC to a final volume of 20 uL, then incubated at 37 °C for 1 hour. Reaction aliquots were spotted on Hybond-N+ membranes (GE healthcare), then washed with 50 mM K2HPO4/KH2PO4 at pH 7.8 and ethanol. Membranes were dried and counted using a Hidex LS 300 scintillation counter.
In vitro methylation assays were performed as described above using two concentrations of inhibitor (0 uM and ~IC50) and varied concentrations of substrate SAM or poly dI-dC while the other substrate is held at a saturating concentration of 10 uM. For the variation of SAM, concentrations of 0.15, 0.25, 0.5, 1, 3 and 10 uM were used, while for the variation of poly dI-dC concentrations of 0.15, 0.25, 0.5, 1, 2.5, and 10 uM were used. Data was fitted globally with Prism 10 and best-fit inhibition models were determined using an F-test (p < 0.0001).
Lineweaver-Burke plots were generated and fit to a linear regression model. Data represent the mean and standard deviation of three independent reactions. […]
Figure S2: Double reciprocal plots for 1a (A, B), 3 (C, D), 4 (E, F), 5 (G, H), and 10 (I, J) with DNA and SAM. The data points represent the mean and standard deviation of three independent reactions. Reactions were done at initial velocity conditions using 150 nM DNMT3A, and varied concentrations of one substrate (0.15 –10 uM) while the other was saturated at 10 uM. Linear fits […]
competitive inhibition and uncompetitive inhibition respectively.
(1 picture or pasted object on this page, not shown here) […]
coefficient is a measure of the inhibitor’s preference for E and ES kinetic species.
Table S1: Determination of best fit inhibition models for 1a, 3, 4, 5, and 10 by R2 comparison […]
Most of the inhibitors have α < 1, where the inhibitor prefers the enzyme-substrate complex. […]

The target in data set [2] is DNMT3A. Also noted: method as in PMID 33705897. The following applies: with SAM; read-out: Ki with S-adenosyl methionine (SAM, AdoMet); cited from earlier work.
For data set [3], the target named is T1, DNMT3A_CD (catalytic domain of DNMT3A). As to the kind of experiment: In vitro methylation assay, IC50 determination ([3H]-SAM, poly dI-dC). The format is biochemical. Particulars: 150 nM DNMT3A, 10 uM SAM, 10 uM poly dI-dC; 1 hour preincubation; Hill slope constrained to -2. As for the experimental part:
Expression and Purification of DNMT3A_CD
The catalytic domain of DNMT3A (residues 634 -912) were used for all experiments […]
DNMT3A_CD was expressed in NiCo21 (DE3) cells (NEB) using a codon optimized plasmid pET28a-hDNMT3A_CD (∆1-611). Cell cultures were grown in LB medium at 37 °C to an OD600 = 0.8. Cultures were cooled to 25 °C, then expression was induced by the addition of 1 mM IPTG (Gold Biotechnology). Cells were harvested by centrifugation after 5 hours and flash frozen in liquid nitrogen for storage at -80 °C.
Cells were resuspended in lysis buffer containing 50 mM K2HPO4/KH2PO4, 500 mM NaCl, 50 mM imidazole, 10% glycerol [v/v], 1 mM EDTA and 1 mM PMSF at pH 7.8.
Sonication was used for lysis and the supernatant was collected after centrifugation at 18,000 x g for 1 hour. Lysates were applied to an ÄKTA start FPLC system (GE healthcare) and loaded onto a 1 mL HisTrap Excel column (Cytiva). The column was washed with 50 mL of lysis […]
as §1, §2, §3
All reactions containing inhibitors were preincubated with DNMT3A and inhibitor for 1 hour. Reactions were activated with poly dI-dC to a final volume of 20 uL, then incubated at 37 °C for 1 hour. Reaction aliquots were spotted on Hybond-N+ membranes (GE healthcare), then washed with 50 mM K2HPO4/KH2PO4 at pH 7.8 and ethanol. Membranes were dried and counted using a Hidex LS 300 scintillation counter. […]
Determination of IC50 Value
Percent activity of methylation assays was determined by comparing activities of assays with inhibitor to assays without inhibitor. Sigmoidal dose-response curves of percent activity vs compound concentration were fitted in Prism 10.
All assays were performed in triplicate, with additional repetitions added as necessary. […]
14). Reactions consisted of 150 nM DNMT3A, 10 uM SAM, and 10 uM poly dI -dC. The data

Data set [4] concerns acute myeloid leukemia cell. Also noted: method as in PMID 35866897. The following applies: cited from earlier work.
On the set-up of data set [5]: method as in PMID 26935942. The following applies: versus FDA-approved inhibitors (azacytidine and decitabine); cited from earlier work.

The structures appear in SMILES notation. Some results are limits rather than exact numbers.

T1 sequence (Q9Y6K1 634-912): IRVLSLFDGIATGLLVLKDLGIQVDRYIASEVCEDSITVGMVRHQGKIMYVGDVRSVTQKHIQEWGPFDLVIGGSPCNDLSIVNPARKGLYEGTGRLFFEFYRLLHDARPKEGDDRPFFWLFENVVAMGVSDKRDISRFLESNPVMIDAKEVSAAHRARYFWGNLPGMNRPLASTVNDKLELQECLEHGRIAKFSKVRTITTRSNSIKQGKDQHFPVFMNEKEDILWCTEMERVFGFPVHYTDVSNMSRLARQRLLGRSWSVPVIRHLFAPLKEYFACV

Consider `COc1ccc(C2=NN(C3CCCCCC3)C(=O)[C@@H]3CC=CC[C@H]23)cc1OCCCCOc1ccc(-c2nnn[nH]2)cc1` [Compound 1a], for which, in data set [1], the “α coefficient from mixed-type inhibition model, varied SAM” value is under 1; the “α coefficient from mixed-type inhibition model, varied DNA” value was under 1; the “Best fit inhibition model” value is listed as “mixed-type inhibition model”. Also, the Ki in data set [2] was 9.16 to 18.9 µM. Further, inhibition in data set [3] was half-maximal at 14 ± 2 µM (IC50). Moreover, the AML cell differentiation entry in data set [4] was “induce acute myeloid leukemia cell differentiation”. Further, the Cytotoxicity entry in data set [5] is on record as “significantly less cytotoxic than FDA-approved inhibitors”.

On to `COc1ccc(C2=NN(C3CCCCCC3)C(=O)C2(C)C)cc1OCCCCOc1ccc(-c2nnn[nH]2)cc1` [Compound 1b], for which, in data set [2], the Ki is 3.7 to 7.06 µM. For the same molecule, the AML cell differentiation result in data set [4] is listed as “induce acute myeloid leukemia cell differentiation”. In data set [5], the Cytotoxicity entry is on record as “significantly less cytotoxic than FDA-approved inhibitors”.

In data set [3], `COc1ccc(C2=NN(C3CCCCCC3)C(=O)[C@@H]3CC=CC[C@H]23)cc1OCCCCOc1ccc(C#N)cc1` [Compound 2] yielded an IC50 of over 300 µM.

On to `COc1ccc(C2=NN(C3CCCCCC3)C(=O)[C@@H]3CC=CC[C@H]23)cc1OCCCCOc1ccc(C(=O)O)cc1` [Compound 3], for which, in data set [1], the “α coefficient from mixed-type inhibition model, varied DNA” value is listed as over 1 and the “Best fit inhibition model” value is “mixed-type inhibition model”. Moreover, the IC50 in data set [3] worked out at 23 µM.

Consider `O=C1[C@@H]2CC=CC[C@@H]2C(c2cccc(OCCCCOc3ccc(-c4nn[nH]n4)cc3)c2)=NN1C1CCCCCC1` [Compound 4], for which, in data set [1], the “Best fit inhibition model” value is “mixed-type inhibition model”. In data set [3], this molecule showed an IC50 of 10 µM.

As to `CN1N=C(c2cccc(OCCCCOc3ccc(-c4nn[nH]n4)cc3)c2)[C@H]2CC=CC[C@H]2C1=O` [Compound 5], in data set [1], the “Best fit inhibition model” value was “mixed-type inhibition model”. In data set [3], the IC50 was 41 µM.

On to `O=C1[C@@H]2CC=CC[C@@H]2C(c2cccc(OCCCCOc3ccc(-c4nn[nH]n4)cc3)c2)=NN1Cc1ccccc1` [Compound 6], for which it took 13 µM to reach half-maximal inhibition in data set [3] (IC50).

Take `O=C1[C@@H]2CC=CC[C@@H]2C(c2cccc(OCCCCOc3ccc(-c4nn[nH]n4)cc3)c2)=NN1Cc1ccc(F)c(F)c1` [Compound 7]: in data set [3], the midpoint of inhibition, the IC50, lay at 18 µM.

In data set [3], `O=C1[C@@H]2CC=CC[C@@H]2C(c2cccc(OCCCOc3ccc(-c4nn[nH]n4)cc3)c2)=NN1C1CCCCCC1` [Compound 8] displayed an IC50 of 11 µM.

As for `O=C1[C@@H]2CC=CC[C@@H]2C(c2cccc(OCCCCCOc3ccc(-c4nn[nH]n4)cc3)c2)=NN1C1CCCCCC1` [Compound 9], in data set [3], the IC50 was 9 µM.

Regarding `O=C1[C@@H]2CC=CC[C@@H]2C(c2cccc(OC/C=C\COc3ccc(-c4nn[nH]n4)cc3)c2)=NN1C1CCCCCC1` [Compound 10], in data set [1], the “α coefficient from mixed-type inhibition model, varied SAM” value is reported as over 1 and the “Best fit inhibition model” value was “mixed-type inhibition model”. In addition, the IC50 in data set [3] turned out to be 11 µM.

On to `O=C1[C@@H]2CC=CC[C@@H]2C(c2cccc(OC/C=C/COc3ccc(-c4nn[nH]n4)cc3)c2)=NN1C1CCCCCC1` [Compound 11], for which, in data set [3], the IC50 stood at 13 µM.

As to `O=C(COc1cccc(C2=NN(C3CCCCCC3)C(=O)[C@@H]3CC=CC[C@H]23)c1)Nc1ccc(-c2nn[nH]n2)cc1` [Compound 12], inhibition in data set [3] was half-maximal at 38 µM (IC50).

In data set [3], `O=c1c2ccccc2c(-c2cccc(OCCCCOc3ccc(-c4nn[nH]n4)cc3)c2)nn1C1CCCCCC1` [Compound 13] returned an IC50 of 13 µM.

`c1ccc(OCCCCOc2ccc(-c3nn[nH]n3)cc2)cc1` [Compound 14] had an IC50 in data set [3] of over 100 µM.

The term Ki denotes the equilibrium dissociation constant of an inhibitor or competing ligand from its target. As usually defined, the IC50 is the concentration needed to halve the response being measured. Read a high IC50 as weaker potency in that assay.
